PMC6944674, “Comparison of the Hepatotoxic Potential of Two Treatments for Autosomal-Dominant Polycystic Kidney DiseaseUsing Quantitative Systems Toxicology Modeling” (Pharmaceutical Research, 2020)
Read-outs that look alike come from different tables or passages of the source.

Columns and labels:
[1] = Intracellular concentration by LC/MS/MS in HepG2 cultures parallel to ROS high-content screening; type: in vitro ADME; settings: human, HepG2 cells, High content screening medium
Method: (§1) To assess the intracellular concentration of lixivaptan and its metabolites, an identical HepG2 culture was established in parallel and cell lysate concentrations of each test article were measured by LC/MS/MS analysis. Intracellular concentrations of the compounds were calculated by correcting for cell lysate volume (100 µL) and the volume of HepG2 cells in each well, which was calculated by multiplying cell count per well by cellular volume per cell (2.85 pl/cell for HepG2). One independent study in triplicate was conducted to assess intracellular concentrations of the test articles for the ROS (high-content imaging) studies.

HepG2 cells = assay: as above; type: in vitro ADME; settings: High content screening medium; for CIntracellular Fraction: cell lysate
Method: as §1

human MRP4 = target: T1, human MRP4 (Homo sapiens, UniProt O15439); assay: MRP4 vesicular transport inhibition assay (E217βG, HEK-293 cell membrane vesicles); type: biochemical
T1 construct: host or cells: HEK-293 cell membrane vesicles
T1 sequence (O15439 1-1325): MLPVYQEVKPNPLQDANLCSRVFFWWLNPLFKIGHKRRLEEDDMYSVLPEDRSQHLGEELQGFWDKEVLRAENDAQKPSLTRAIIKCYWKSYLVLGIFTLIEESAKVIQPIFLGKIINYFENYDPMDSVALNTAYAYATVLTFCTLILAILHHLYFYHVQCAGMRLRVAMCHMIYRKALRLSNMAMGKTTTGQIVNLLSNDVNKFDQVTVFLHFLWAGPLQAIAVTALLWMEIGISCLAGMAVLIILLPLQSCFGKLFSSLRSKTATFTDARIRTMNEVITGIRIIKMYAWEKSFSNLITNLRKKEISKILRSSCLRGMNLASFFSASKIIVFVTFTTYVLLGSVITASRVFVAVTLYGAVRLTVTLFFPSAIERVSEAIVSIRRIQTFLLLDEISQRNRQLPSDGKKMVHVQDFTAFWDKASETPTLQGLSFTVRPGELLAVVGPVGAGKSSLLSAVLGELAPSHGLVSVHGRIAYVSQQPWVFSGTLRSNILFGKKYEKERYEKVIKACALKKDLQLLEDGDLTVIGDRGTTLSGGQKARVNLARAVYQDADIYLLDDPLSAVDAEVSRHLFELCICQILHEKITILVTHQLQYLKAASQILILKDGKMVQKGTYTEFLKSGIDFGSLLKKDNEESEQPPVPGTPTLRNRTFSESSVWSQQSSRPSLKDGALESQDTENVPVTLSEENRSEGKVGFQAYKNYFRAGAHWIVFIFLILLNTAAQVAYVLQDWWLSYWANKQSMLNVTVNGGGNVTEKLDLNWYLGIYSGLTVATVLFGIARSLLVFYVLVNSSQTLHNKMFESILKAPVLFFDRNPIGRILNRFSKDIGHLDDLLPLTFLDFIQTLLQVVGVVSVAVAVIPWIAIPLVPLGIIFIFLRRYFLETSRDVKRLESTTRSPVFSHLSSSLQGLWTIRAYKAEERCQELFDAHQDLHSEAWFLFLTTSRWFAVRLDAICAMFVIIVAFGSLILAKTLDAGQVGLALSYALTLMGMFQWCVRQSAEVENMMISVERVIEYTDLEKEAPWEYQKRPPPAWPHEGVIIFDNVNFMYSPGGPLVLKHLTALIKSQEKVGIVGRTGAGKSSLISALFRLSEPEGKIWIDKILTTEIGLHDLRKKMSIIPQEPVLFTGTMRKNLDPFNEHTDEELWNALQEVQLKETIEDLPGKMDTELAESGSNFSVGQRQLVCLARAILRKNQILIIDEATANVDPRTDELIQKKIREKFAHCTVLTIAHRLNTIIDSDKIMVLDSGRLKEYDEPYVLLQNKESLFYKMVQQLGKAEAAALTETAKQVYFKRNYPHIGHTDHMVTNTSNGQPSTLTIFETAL
Method: (§2) The functional impact of lixivaptan, its three metabolites and tolvaptan on the human ABC (efflux) transporters BSEP and MRP3 and MRP4 was assessed for this project using in vitro vesicular transport inhibition assays. The inhibition of the human SLC (uptake) transporter NTCP was assessed using CHO cells stably expressing human NTCP. The concentration ranges used for the five test articles was determined based on the solubility of each compound in the assay solution. All transporter inhibition assays were conducted in triplicate by Solvo Biotechnology (Szeged, Hungary).
Figure B2. […] See Appendix A for more details.

[2] = cited from earlier work
human NTCP = target: T2, human NTCP (Homo sapiens, UniProt Q14973); assay: NTCP inhibition in CHO cells stably expressing human NTCP (taurocholate); type: cell-based
T2 sequence (Q14973 1-349): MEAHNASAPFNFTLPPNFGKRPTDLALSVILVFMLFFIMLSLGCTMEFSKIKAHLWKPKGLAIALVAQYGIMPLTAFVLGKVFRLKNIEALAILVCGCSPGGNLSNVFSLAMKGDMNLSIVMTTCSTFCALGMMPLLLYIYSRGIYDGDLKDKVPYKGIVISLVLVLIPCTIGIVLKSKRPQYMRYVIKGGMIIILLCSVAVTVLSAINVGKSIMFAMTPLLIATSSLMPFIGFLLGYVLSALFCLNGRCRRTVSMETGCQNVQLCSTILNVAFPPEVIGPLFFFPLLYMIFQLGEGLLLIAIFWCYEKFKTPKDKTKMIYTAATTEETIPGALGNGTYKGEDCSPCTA
Method: as §2
Figure B4. […] See Appendix A for more details.

[3] = set-up: method as in proprietary data not shown; settings: rat tissue distribution study; ref proprietary data not shown; cited from earlier work

Kp at 5 µM ([1]; dose 5 µM): 17.6 ± 18.4
Kp at 10 µM ([1]; dose 10 µM): 39.7 ± 6.49
Kp at 25 µM ([1]; dose 25 µM): 19.9 ± 4.54
Kp at 40 µM ([1]; dose 40 µM): 12.9 ± 2.68
CExtracellular Fraction (HepG2 cells; dose 0.01 µM): 0.000 ± 0.000 µM
CHepatocyte (HepG2 cells; dose 0.01 µM): 0.000 ± 0.000 µM
CIntracellular Fraction (HepG2 cells; dose 0.01 µM): 0.000 ± 0.000 µM
CExtracellular Fraction (HepG2 cells; dose 0.1 µM): 0.001 ± 0.001 µM
CHepatocyte (HepG2 cells; dose 0.1 µM): 0.000 ± 0.000 µM
CIntracellular Fraction (HepG2 cells; dose 0.1 µM): 0.000 ± 0.000 µM
CExtracellular Fraction (HepG2 cells; dose 0.5 µM): 0.020 ± 0.001 µM
CHepatocyte (HepG2 cells; dose 0.5 µM): 0.000 ± 0.000 µM
CIntracellular Fraction (HepG2 cells; dose 0.5 µM): 0.000 ± 0.000 µM
CExtracellular Fraction (HepG2 cells; dose 1 µM): 0.047 ± 0.001 µM
CHepatocyte (HepG2 cells; dose 1 µM): 0.000 ± 0.000 µM
CIntracellular Fraction (HepG2 cells; dose 1 µM): 0.000 ± 0.000 µM
CExtracellular Fraction (HepG2 cells; dose 5 µM): 0.345 ± 0.011 µM
CHepatocyte (HepG2 cells; dose 5 µM): 6.02 ± 6.30 µM
CIntracellular Fraction (HepG2 cells; dose 5 µM): 0.0013 ± 0.0016 µM
CExtracellular Fraction (HepG2 cells; dose 10 µM): 0.736 ± 0.055 µM
CHepatocyte (HepG2 cells; dose 10 µM): 28.44 ± 5.12 µM
CIntracellular Fraction (HepG2 cells; dose 10 µM): 0.0054 ± 0.0032 µM
CExtracellular Fraction (HepG2 cells; dose 25 µM): 2.751 ± 0.143 µM
CHepatocyte (HepG2 cells; dose 25 µM): 55.57 ± 15.10 µM
CIntracellular Fraction (HepG2 cells; dose 25 µM): 0.0093 ± 0.0055 µM
CExtracellular Fraction (HepG2 cells; dose 40 µM): 5.773 ± 0.508 µM
CHepatocyte (HepG2 cells; dose 40 µM): 71.75 ± 11.05 µM
CIntracellular Fraction (HepG2 cells; dose 40 µM): 0.0114 ± 0.0058 µM
inhibition of MRP4-mediated probe substrate accumulation (human MRP4): inhibited
inhibition of NTCP-mediated probe substrate accumulation (human NTCP; CHO cells): observed
IC50 (human NTCP; read-out: NTCP inhibition constant (IC50)): 19 µM
SMILES: Cc1ccc(F)cc1C(=O)Nc1ccc(C(=O)N2Cc3cccn3Cc3ccccc32)c(Cl)c1 [Lixivaptan, lixivaptan]
Clinical ALT >3X ULN ([2]; 100 mg BID, 60 days, hyponatremia protocol, ref study CK-LX3401 (not shown)): On treatment similar to placebo**
Clinical ALT >3X ULN ([2]; 400 mg BID, 7 days, ref clinical trial CK-LX1403): no individuals out of 67 showed elevated ALT
measured liver-to-plasma ratio [3]: 17
